Data published in patent US11414395B2, “Heterocyclic compounds as modulators of mGluR7” (PRAGMA Therapeutics, priority 2017, dated 2022).

biological target: human mGluR7 (Homo sapiens (Human), UniProt Q14831); experiment: Inositol monophosphate production assay (IP1 assay), inhibition of L-AP4 response; format: cell-based; settings: mean IC50 from at least two independent experiments; HEK293 cells transiently transfected with mGluR7, Gqtop and EAAC1; IP1 production vs EC80 L-AP4
Excerpt: Inositol Monophosphate Production Assay (IP1 Assay):
HEK293 cells were transiently transfected with mGluR7 by electroporation and seeded in a poly-ornithine coated 96-well plate at the density of 150 000 cells/well. To allow the monitoring of receptor activity through measurements of inositol monophosphate (IP1) production, mGluR7 was transfected with a chimeric Gq/Gi protein (Gqtop). and was also co-transfected with EAAC1, a glutamate transporter, to avoid influence of extracellular glutamate. Cells were cultured in Dulbecco's Modified Eagle Medium (DMEM, Invitrogen, Cergy Pontoise, France), supplemented with 10% of Fetal Bovine Serum (FBS). Medium was changed by Glutamax™ (Invitrogen, Cergy Pontoise, France) to reduce extracellular glutamate concentration 3 hours before stimulation
IP1 production was determined using the IP-One HTRF kit (CisBio Bioassays), a competitive immunoassay using cryptate-labeled anti-IP1 antibody and d2-labeled IP, according to the manufacturer's recommendations. All points were realized in triplicate.
Data were analyzed with Prism 6 software (GraphPadSoftware, San Diego, Calif.). Typically, in each experiment, a four-parameter concentration-response curve equation was used to fit data and potency (IC50) is estimated as logarithms (log IC50). Data were calculated as % of the control mGluR7 agonist L-AP4 response, defined as the response that is generated upon addition of an EC80-equivalent concentration of L-AP4.
The Table 2 below represents the mean IC50 obtained from at least two independent experiments.

Chain of human mGluR7 (Q14831 35-915): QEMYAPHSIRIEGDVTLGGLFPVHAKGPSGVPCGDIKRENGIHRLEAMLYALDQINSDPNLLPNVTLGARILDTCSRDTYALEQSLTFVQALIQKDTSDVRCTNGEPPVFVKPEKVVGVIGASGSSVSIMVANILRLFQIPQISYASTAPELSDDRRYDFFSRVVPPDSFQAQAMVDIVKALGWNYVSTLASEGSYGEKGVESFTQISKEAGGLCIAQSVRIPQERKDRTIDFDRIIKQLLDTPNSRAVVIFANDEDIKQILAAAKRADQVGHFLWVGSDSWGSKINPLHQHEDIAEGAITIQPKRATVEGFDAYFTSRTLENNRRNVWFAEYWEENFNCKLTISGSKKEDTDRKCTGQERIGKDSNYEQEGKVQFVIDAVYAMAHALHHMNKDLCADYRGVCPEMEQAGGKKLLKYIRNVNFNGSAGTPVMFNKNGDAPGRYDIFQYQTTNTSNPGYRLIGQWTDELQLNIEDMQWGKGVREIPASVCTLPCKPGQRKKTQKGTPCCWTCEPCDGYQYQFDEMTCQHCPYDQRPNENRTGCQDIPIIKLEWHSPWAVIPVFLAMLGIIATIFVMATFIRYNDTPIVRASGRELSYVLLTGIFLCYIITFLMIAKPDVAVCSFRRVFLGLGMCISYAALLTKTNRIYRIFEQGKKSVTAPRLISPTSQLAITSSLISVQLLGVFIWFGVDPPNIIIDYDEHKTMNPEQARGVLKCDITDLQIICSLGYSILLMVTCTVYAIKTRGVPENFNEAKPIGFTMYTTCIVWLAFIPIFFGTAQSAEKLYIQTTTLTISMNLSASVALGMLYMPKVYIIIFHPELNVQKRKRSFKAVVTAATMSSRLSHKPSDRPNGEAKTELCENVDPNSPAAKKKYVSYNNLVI

Cc1ccc(C2CCc3c(cnn(-c4cccnc4)c3=O)C2)c(C)c1 (stereo not drawn) [Example 28, 6-(2,4-dimethylphenyl)-2-(pyridin-3-yl)-5,6,7,8-tetrahydrophthalazin-1(2H)-one] and Cc1ccc(C2CCc3c(cnn(-c4ccccn4)c3=O)C2)c(C)c1 (stereo not drawn) [Example 1, 6-(2,4-dimethyl-phenyl)-2-pyridin-2-yl-5,6,7,8-tetrahydro-2H-phthalazin-1-one] cannot be ordered by IC50: < 500 nM for the first, < 500 nM for the second.

COc1cccc(C2CCc3c(cnn(-c4ccc(O)cn4)c3=O)C2)c1C (stereo not drawn) [Example 38, 2-(5-hydroxypyridin-2-yl)-6-(3-methoxy-2-methylphenyl)-5,6,7,8-tetrahydrophthalazin-1(2H)-one] and COc1cccc(C2CCc3c(cnn(-c4ccccn4)c3=O)C2)c1C (stereo not drawn) [Example 60, 6-(3-methoxy-2-methylphenyl)-2-(pyridin-2-yl)-5,6,7,8-tetrahydrophthalazin-1(2H)-one] cannot be ordered by IC50: < 500 nM for the first, < 500 nM for the second.

COc1ccnc(-n2ncc3c(c2=O)CCC(c2cccc(OC)c2C)C3)n1 (stereo not drawn) [Example 42, 6-(3-methoxy-2-methylphenyl)-2-(4-methoxypyrimidin-2-yl)-5,6,7,8-tetrahydrophthalazin-1(2H)-one] and COc1cccc(C2CCc3c(cnn(-c4ncc(Cl)cn4)c3=O)C2)c1C (stereo not drawn) [Example 43, 2-(5-chloropyrimidin-2-yl)-6-(3-methoxy-2-methylphenyl)-5,6,7,8-tetrahydrophthalazin-1(2H)-one] cannot be ordered by IC50: < 500 nM for the first, < 500 nM for the second.

Compared with CN1CCc2c(C3CCc4c(cnn(-c5ncccn5)c4=O)C3)cccc21 (stereo not drawn) [Example 78, 6-(1-methylindolin-4-yl)-2-(pyrimidin-2-yl)-5,6,7,8-tetrahydrophthalazin-1(2H)-one], CC(=O)c1cccc(C2CCc3c(cnn(-c4ncccn4)c3=O)C2)c1C (stereo not drawn) [Example 120, 6-(3-acetyl-2-methylphenyl)-2-(pyrimidin-2-yl)-5,6,7,8-tetrahydrophthalazin-1(2H)-one] is higher in IC50: < 500 nM for the first, 1000 to 30000 nM for the second.

Cc1ccc(C2CCc3c(cnn(-c4ncc(C(F)(F)F)cn4)c3=O)C2)c(C)c1 (stereo not drawn) [Example 55, 6-(2,4-dimethylphenyl)-2-(5-(trifluoromethyl)pyrimidin-2-yl)-5,6,7,8-tetrahydrophthalazin-1(2H)-one] and Cc1ccc(C2CCc3c(cnn(-c4ncc(C5CC5)cn4)c3=O)C2)c(C)c1 (stereo not drawn) [Example 109, 2-(5-cyclopropylpyrimidin-2-yl)-6-(2,4-dimethylphenyl)-5,6,7,8-tetrahydrophthalazin-1(2H)-one] cannot be ordered by IC50: < 500 nM for the first, < 500 nM for the second.

Cc1ccc(-n2ncc3c(c2=O)CCC(c2ccc(C)cc2C)C3)nc1 (stereo not drawn) [Example 18, 6-(2,4-dimethylphenyl)-2-(5-methylpyridin-2-yl)-5,6,7,8-tetrahydrophthalazin-1(2H)-one] and Cc1ccc(C2CCc3c(cnn(-c4ccc(O)cn4)c3=O)C2)c(C)c1 (stereo not drawn) [Example 25, 6-(2,4-dimethylphenyl)-2-(5-hydroxypyridin-2-yl)-5,6,7,8-tetrahydrophthalazin-1(2H)-one] cannot be ordered by IC50: < 500 nM for the first, < 500 nM for the second.

Cc1cnc(-n2ncc3c(c2=O)CCC(c2cccc(OC4CC4)c2C)C3)nc1 (stereo not drawn) [Example 93, 6-(3-cyclopropoxy-2-methylphenyl)-2-(5-methylpyrimidin-2-yl)-5,6,7,8-tetrahydrophthalazin-1(2H)-one] and COc1cccc(C2CCc3c(cnn(-c4ncc(C5CC5)cn4)c3=O)C2)c1C (stereo not drawn) [Example 125, 2-(5-cyclopropylpyrimidin-2-yl)-6-(3-methoxy-2-methylphenyl)-5,6,7,8-tetrahydrophthalazin-1(2H)-one] cannot be ordered by IC50: < 500 nM for the first, < 500 nM for the second.

COc1cccc(-n2ncc3c(c2=O)CCC(c2ccc(C)cc2C)C3)n1 (stereo not drawn) [Example 13, 6-(2,4-dimethylphenyl)-2-(6-methoxypyridin-2-yl)-5,6,7,8-tetrahydrophthalazin-1(2H)-one] and Cc1ccc(C2CCc3c(cnn(-c4cccc(C#N)n4)c3=O)C2)c(C)c1 (stereo not drawn) [Example 21, 6-(6-(2,4-dimethylphenyl)-1-oxo-5,6,7,8-tetrahydrophthalazin-2(1H)-yl)picolinonitrile] cannot be ordered by IC50: < 500 nM for the first, < 500 nM for the second.

COc1cccc(C2CCc3c(cnn(-c4ncc(C)cn4)c3=O)C2)c1Cl (single isomer, unassigned; (-)) [Example 134, (−)-6-(2-chloro-3-methoxyphenyl)-2-(5-methylpyrimidin-2-yl)-5,6,7,8-tetrahydrophthalazin-1(2H)-one] and Cc1cnc(-n2ncc3c(c2=O)CCC(c2cccc(OC4CC4)c2C)C3)nc1 (single isomer, unassigned; (-)) [Example 132, (−)-6-(3-cyclopropoxy-2-methylphenyl)-2-(5-methylpyrimidin-2-yl)-5,6,7,8-tetrahydrophthalazin-1(2H)-one] cannot be ordered by IC50: < 500 nM for the first, < 500 nM for the second.

COc1ccc(-n2ncc3c(c2=O)CCC(c2ccc(C)cc2C)C3)nc1 (stereo not drawn) [Example 14, 6-(2,4-dimethylphenyl)-2-(5-methoxypyridin-2-yl)-5,6,7,8-tetrahydrophthalazin-1(2H)-one] and COCc1ccc(-n2ncc3c(c2=O)CCC(c2ccc(C)cc2C)C3)nc1 (stereo not drawn) [Example 27, 6-(2,4-dimethylphenyl)-2-(5-(methoxymethyl)pyridin-2-yl)-5,6,7,8-tetrahydrophthalazin-1(2H)-one] cannot be ordered by IC50: < 500 nM for the first, < 500 nM for the second.

First: COc1c(C)cccc1C1CCc2c(cnn(-c3ncccn3)c2=O)C1 (stereo not drawn) [Example 71, 6-(2-methoxy-3-methylphenyl)-2-(pyrimidin-2-yl)-5,6,7,8-tetrahydrophthalazin-1(2H)-one]
Second: COc1ccc(C2CCc3c(cnn(-c4ncccn4)c3=O)C2)c(C)c1 (stereo not drawn) [Example 87, 6-(4-methoxy-2-methylphenyl)-2-(pyrimidin-2-yl)-5,6,7,8-tetrahydrophthalazin-1(2H)-one]
The IC50 of the first is higher: 500 to 1000 nM for the first, < 500 nM for the second.

Cc1ccc(N2CCCC2)cc1C1CCc2c(cnn(-c3ncccn3)c2=O)C1 (stereo not drawn) [Example 77, 6-(2-methyl-5-(pyrrolidin-1-yl)phenyl)-2-(pyrimidin-2-yl)-5,6,7,8-tetrahydrophthalazin-1(2H)-one] and Cc1cc(Cl)ccc1C1CCc2c(cnn(-c3ncccn3)c2=O)C1 (stereo not drawn) [Example 98, 6-(4-chloro-2-methylphenyl)-2-(pyrimidin-2-yl)-5,6,7,8-tetrahydrophthalazin-1(2H)-one] cannot be ordered by IC50: < 500 nM for the first, < 500 nM for the second.

Cc1ccc(C2CCc3c(cnn(-c4ncccn4)c3=O)C2)c(Cl)c1 (stereo not drawn) [Example 95, 6-(2-chloro-4-methylphenyl)-2-(pyrimidin-2-yl)-5,6,7,8-tetrahydrophthalazin-1(2H)-one] and O=c1c2c(cnn1-c1ncccn1)CC(c1cccc(OC3CC3)c1Cl)CC2 (stereo not drawn) [Example 91, 6-(2-chloro-3-cyclopropoxyphenyl)-2-(pyrimidin-2-yl)-5,6,7,8-tetrahydrophthalazin-1(2H)-one] cannot be ordered by IC50: < 500 nM for the first, < 500 nM for the second.

First: COc1cccc(C2CCc3c(cnn(-c4ncc(N5CCCC5)cn4)c3=O)C2)c1C (stereo not drawn) [Example 111, 6-(3-methoxy-2-methylphenyl)-2-(5-(pyrrolidin-1-yl)pyrimidin-2-yl)-5,6,7,8-tetrahydrophthalazin-1(2H)-one]
Second: COCCOc1cnc(-n2ncc3c(c2=O)CCC(c2cccc(OC)c2C)C3)nc1 (stereo not drawn) [Example 118, 6-(3-methoxy-2-methylphenyl)-2-(5-(2-methoxyethoxy)pyrimidin-2-yl)-5,6,7,8-tetrahydrophthalazin-1(2H)-one]
The IC50 of the first is higher: 1000 to 30000 nM for the first, < 500 nM for the second. The second is the more potent here.

COc1ccnc(-n2ncc3c(c2=O)CCC(c2ccc(C)cc2C)C3)c1 (stereo not drawn) [Example 15, 6-(2,4-dimethylphenyl)-2-(4-methoxypyridin-2-yl)-5,6,7,8-tetrahydrophthalazin-1(2H)-one] and Cc1ccnc(-n2ncc3c(c2=O)CCC(c2ccc(C)cc2C)C3)c1 (stereo not drawn) [Example 19, 6-(2,4-dimethylphenyl)-2-(4-methylpyridin-2-yl)-5,6,7,8-tetrahydrophthalazin-1(2H)-one] cannot be ordered by IC50: < 500 nM for the first, < 500 nM for the second.

COCc1cccc(C2CCc3c(cnn(-c4ncccn4)c3=O)C2)c1 (stereo not drawn) [Example 83, 6-(3-(methoxymethyl)phenyl)-2-(pyrimidin-2-yl)-5,6,7,8-tetrahydrophthalazin-1(2H)-one] and CC(O)c1cccc(C2CCc3c(cnn(-c4ccccn4)c3=O)C2)c1 (stereo not drawn) [Example 65, 6-(3-(1-hydroxyethyl)phenyl)-2-(pyridin-2-yl)-5,6,7,8-tetrahydrophthalazin-1(2H)-one] fall in the same range of IC50: 500 to 1000 nM for the first, 500 to 1000 nM for the second.

First: Cc1ccc(C2CCc3c(cnn(-c4ncc(CN5CCOCC5)cn4)c3=O)C2)c(C)c1 (stereo not drawn) [Example 57, 6-(2,4-dimethylphenyl)-2-(5-(morpholinomethyl)pyrimidin-2-yl)-5,6,7,8-tetrahydrophthalazin-1(2H)-one]
Second: Cc1ccc(C2CCc3c(cnn(-c4ccccn4)c3=O)C2)c(C)c1 (single isomer, unassigned; (-)) [Example 4, (−)-6-(2,4-dimethyl-phenyl)-2-pyridin-2-yl-5,6,7,8-tetrahydro-2H-phthalazin-1-one]
The IC50 of the first is lower: < 500 nM for the first, 1000 to 30000 nM for the second.

Compared with COc1c(C)cccc1C1CCc2c(cnn(-c3ccccn3)c2=O)C1 (stereo not drawn) [Example 68, 6-(2-methoxy-3-methylphenyl)-2-(pyridin-2-yl)-5,6,7,8-tetrahydrophthalazin-1(2H)-one], COc1ccc(C)c(C2CCc3c(cnn(-c4ccccn4)c3=O)C2)c1 (stereo not drawn) [Example 61, 6-(5-methoxy-2-methylphenyl)-2-(pyridin-2-yl)-5,6,7,8-tetrahydrophthalazin-1(2H)-one] is lower in IC50: 500 to 1000 nM for the first, < 500 nM for the second.
